Measured values reported in patent US10080742B2, “Isoxazole derivatives as FXR agonists and methods of use thereof” (Enanta Pharmaceuticals, Inc., priority 2016, dated 2018).

Molecular target: T1, human FXR (NR1H4) (Homo sapiens, UniProt Q96RI1)
T1 construct: host or cells: CHO (Chinese hamster ovary) reporter cells
T1 sequence (Q96RI1 1-486): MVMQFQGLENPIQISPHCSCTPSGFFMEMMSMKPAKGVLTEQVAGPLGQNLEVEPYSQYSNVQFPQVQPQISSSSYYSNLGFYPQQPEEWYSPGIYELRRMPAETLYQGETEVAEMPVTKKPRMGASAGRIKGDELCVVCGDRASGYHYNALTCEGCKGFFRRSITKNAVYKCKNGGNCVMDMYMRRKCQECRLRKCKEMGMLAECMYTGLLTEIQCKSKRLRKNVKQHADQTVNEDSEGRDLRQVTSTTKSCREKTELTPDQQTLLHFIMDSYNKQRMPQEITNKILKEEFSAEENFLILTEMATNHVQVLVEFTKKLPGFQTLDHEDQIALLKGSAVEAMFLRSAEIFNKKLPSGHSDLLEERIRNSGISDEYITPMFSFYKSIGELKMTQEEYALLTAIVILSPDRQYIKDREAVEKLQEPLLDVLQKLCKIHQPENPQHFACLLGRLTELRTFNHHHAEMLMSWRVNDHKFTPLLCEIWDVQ
Experiment: Human FXR (NR1H4) Assay (Gal4 promoter driven luciferase reporter, CHO cells)
Format: cell-based
Settings: for EC50: FXR reporter assay in CHO cells expressing human NR1H4, 22 hours incubation, potency ranges; for Efficacy (%): normalized to CDCA set as 100%, FXR reporter assay in CHO cells
Excerpt: Human FXR (NR1H4) Assay Determination of a ligand mediated Gal4 promoter driven transactivation to quantify ligand binding mediated activation of FXR. FXR Reporter Assay kit purchased from Indigo Bioscience (Catalogue number: IB00601) to determine the potency and efficacy of compound developed by Enanta that can induce FXR activation. The principle application of this reporter assay system is to quantify functional activity of human FXR. The assay utilizes non-human mammalian cells, CHO (Chinese hamster ovary) cells engineered to express human NR1H4 protein (referred to as FXR). Reporter cells also incorporate the cDNA encoding beetle luciferase which catalyzes the substrates and yields photon emission. Luminescence intensity of the reaction is quantified using a plate-reading luminometer, Envision. Reporter Cells include the luciferase reporter gene functionally linked to an FXR responsive promoter. Thus, quantifying changes in luciferase expression in the treated reporter cells provides a sensitive surrogate measure of the changes in FXR activity. […] The assay is according to the manufacturer's instructions. In brief, the assay was performed in white, 96 well plates using final volume of 100 ul containing cells with different doses of compounds. Retrieve Reporter Cells from −80° C. storage. Perform a rapid thaw of the frozen cells by transferring a 10 ml volume of 37° C. cell recovery medium into the tube of frozen cells. Recap the tube of Reporter Cells and immediately place it in a 37° C. water bath for 5-10 minutes. Retrieve the tube of Reporter Cell Suspension from the water bath. Sanitize the outside surface of the tube with a 70% alcohol swab, and then transfer it into the cell culture hood. Dispense 90 μl of cell suspension into each well of the 96-well Assay Plate. Transfer the plate into 37° C. incubator, allowing the cells adherent to the bottom of the well. Dilute compounds in Dilution Plate (DP), and administrate to cells at Assay Plate (AP). DMSO content of the samples was kept at 0.2%. Cells were incubated for additional 22 hours before luciferase activities were measured. Thirty minutes before intending to quantify FXR activity, remove Detection Substrate and Detection Buffer from the refrigerator and place them in a low-light area so that they may equilibrate to room temperature. Remove the plate's lid and discard all media contents by ejecting it into an appropriate waste container. Gently tap the inverted plate onto a clean absorbent paper towel to remove residual droplets. Cells will remain tightly adhered to well bottoms. Add 100 μl of luciferase detection reagent to each well of the assay plate. Allow the assay plate to rest at room temperature for at least 5 minutes following the addition of LDR. Set the instrument (Envision) to perform a single 5 second “plate shake” prior to reading the first assay well. Read time may be 0.5 second (500 mSec) per well.

Row | EC50 [nM] | Efficacy (%) | SMILES
1 | < 100 | 304 | O=C(O)c1ccc2nc(N3CCC(OCc4c(-c5c(Cl)cccc5Cl)noc4C4CC4)CC3)sc2c1 [Compound (1), reference compound]
2 | 100 to 1000 | 122 | O=C(NS(=O)(=O)C1CC1)c1ccc2nc(N3CCC(OCc4c(-c5c(Cl)cccc5Cl)noc4C4CC4)CC3)sc2c1 [Example 11]
3 | < 100 | 129 | CN(C)S(=O)(=O)NC(=O)c1ccc2nc(N3CCC(OCc4c(-c5c(Cl)cccc5Cl)noc4C4CC4)CC3)sc2c1 [Example 26]
